Molecular target: T1, ΔF508-CFTR (Homo sapiens, UniProt P13569, DEL508-508)
T1 construct: expressed in transfected cells
Experiment: Membrane potential optical assay (FRET voltage-sensor dyes, VIPR), identification of potentiator compounds
Type: cell-based
Details: Table 3; assay not given; read-out: % Activity (% Efficacy, relative efficacy)
Outline: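 Potentiator screen measured membrane potential via FRET between CC2-DMPE donor and DiSBAC2(3), read on VIPR II. Compound went in with the first addition of chloride-free gluconate bath; cells were ΔF508-CFTR-expressing NIH3T3 mouse fibroblasts, temperature-corrected at 27 °C for 24 h.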

T1 sequence (P13569 with tags, fused parts or gaps DEL508-508): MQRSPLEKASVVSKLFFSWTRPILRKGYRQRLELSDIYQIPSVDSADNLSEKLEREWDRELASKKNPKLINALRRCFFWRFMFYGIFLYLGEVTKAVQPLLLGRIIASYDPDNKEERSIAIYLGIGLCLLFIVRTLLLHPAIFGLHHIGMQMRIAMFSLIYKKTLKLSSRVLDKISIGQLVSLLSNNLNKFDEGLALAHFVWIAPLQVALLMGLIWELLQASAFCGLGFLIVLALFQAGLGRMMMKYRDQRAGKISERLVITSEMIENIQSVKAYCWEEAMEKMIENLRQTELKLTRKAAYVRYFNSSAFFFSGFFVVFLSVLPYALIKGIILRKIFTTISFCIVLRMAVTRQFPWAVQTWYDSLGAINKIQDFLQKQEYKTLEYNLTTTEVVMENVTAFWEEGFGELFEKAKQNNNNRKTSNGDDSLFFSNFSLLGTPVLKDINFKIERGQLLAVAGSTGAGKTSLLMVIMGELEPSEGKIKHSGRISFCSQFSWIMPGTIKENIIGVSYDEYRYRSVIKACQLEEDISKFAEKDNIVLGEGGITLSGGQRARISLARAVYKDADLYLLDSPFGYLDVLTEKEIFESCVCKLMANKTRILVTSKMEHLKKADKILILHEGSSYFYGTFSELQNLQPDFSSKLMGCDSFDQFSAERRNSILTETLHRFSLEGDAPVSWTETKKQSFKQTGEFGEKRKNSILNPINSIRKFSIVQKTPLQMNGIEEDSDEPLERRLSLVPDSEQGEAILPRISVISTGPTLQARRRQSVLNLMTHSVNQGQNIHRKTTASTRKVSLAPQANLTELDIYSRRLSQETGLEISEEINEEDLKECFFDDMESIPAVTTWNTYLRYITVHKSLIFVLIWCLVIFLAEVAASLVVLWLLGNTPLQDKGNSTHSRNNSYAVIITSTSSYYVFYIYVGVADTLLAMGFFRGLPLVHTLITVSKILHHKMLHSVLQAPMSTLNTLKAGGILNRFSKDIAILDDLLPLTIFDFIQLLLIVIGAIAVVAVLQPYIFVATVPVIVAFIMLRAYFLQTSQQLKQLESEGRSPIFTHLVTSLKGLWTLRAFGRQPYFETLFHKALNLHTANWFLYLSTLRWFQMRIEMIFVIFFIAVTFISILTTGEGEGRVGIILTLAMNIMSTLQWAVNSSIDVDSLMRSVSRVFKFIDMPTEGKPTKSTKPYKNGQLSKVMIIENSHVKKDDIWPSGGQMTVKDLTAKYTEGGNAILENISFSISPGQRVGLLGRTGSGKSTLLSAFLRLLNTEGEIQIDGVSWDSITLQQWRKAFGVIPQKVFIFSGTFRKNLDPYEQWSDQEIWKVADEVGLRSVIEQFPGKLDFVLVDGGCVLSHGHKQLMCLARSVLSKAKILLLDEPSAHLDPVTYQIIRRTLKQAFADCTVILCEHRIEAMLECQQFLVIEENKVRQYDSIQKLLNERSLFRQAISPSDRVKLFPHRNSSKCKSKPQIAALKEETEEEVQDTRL

Row | Compound | Emax
1 | CCC(CC)(CC)c1cc(F)c(NC(=O)c2cnc3ccccc3c2O)cc1O [Compound 34, N-[4-(1,1-diethylpropyl)-2-fluoro-5-hydroxy-phenyl]-4-hydroxy-quinoline-3-carboxamide] | 25 to 100%
2 | CC(C)(C)c1cc(Cl)c(O)cc1NC(=O)c1c[nH]c2ccccc2c1=O [Compound 426, N-(4-chloro-5-hydroxy-2-tert-butyl-phenyl)-4-oxo-1H-quinoline-3-carboxamide] | 25 to 100%
3 | Cc1cccc2[nH]cc(C(=O)Nc3ccc(N4CCC[C@H]4C)cc3C(F)(F)F)c(=O)c12 [Compound 697, (R)-5-methyl-N-(4-(2-methylpyrrolidin-1-yl)-2-(trifluoromethyl)phenyl)-4-oxo-1,4-dihydroquinoline-3-carboxamide] | 25 to 100%
4 | O=C(Nc1cccc2ccccc12)c1c[nH]c2ccccc2c1=O [Compound 350, N-(1-naphthyl)-4-oxo-1H-quinoline-3-carboxamide] | 25 to 100%
5 | CC(C)(C)c1cccc(NC(=O)c2c[nH]c3ccc(F)cc3c2=O)c1 [Compound 664, 6-fluoro-4-oxo-N-(3-tert-butylphenyl)-1H-quinoline-3-carboxamide] | 25 to 100%
6 | O=C(Nc1ccc2ccccc2c1)c1c[nH]c2ccccc2c1=O [Compound 481, N-(2-naphthyl)-4-oxo-1H-quinoline-3-carboxamide] | 25 to 100%
7 | CC1(c2ccc(NC(=O)c3c[nH]c4ccc(F)cc4c3=O)cc2)COC1 [Compound 521, 6-fluoro-N-[4-(3-methyloxetan-3-yl)phenyl]-4-oxo-1H-quinoline-3-carboxamide] | 25 to 100%
8 | CC1(C)CCCN(c2ccc(NC(=O)c3c[nH]c4ccccc4c3=O)c(C(F)(F)F)c2)C1 [Compound 612, N-[4-(3,3-dimethyl-1-piperidyl)-2-(trifluoromethyl)phenyl]-4-oxo-1H-quinoline-3-carboxamide] | 25 to 100%
9 | Cc1ccc(C)n1-c1ccccc1NC(=O)c1c[nH]c2ccccc2c1=O [Compound 297, N-[2-(2,5-dimethyl-1H-pyrrol-1-yl)phenyl]-4-oxo-1H-quinoline-3-carboxamide] | 25 to 100%
10 | O=C(Nc1ccc(N2CCOCC2)cc1)c1c[nH]c2ccccc2c1=O [Compound 457, N-(4-morpholinophenyl)-4-oxo-1H-quinoline-3-carboxamide] | < 25%
11 | O=C(Nc1cc(O)c(Cl)cc1Cl)c1c[nH]c2ccccc2c1=O [Compound 608, N-(2,4-dichloro-5-hydroxy-phenyl)-4-oxo-1H-quinoline-3-carboxamide] | 25 to 100%
12 | N#CCc1c[nH]c2cc(NC(=O)c3c[nH]c4ccccc4c3=O)ccc12 [Compound 96, N-[3-(cyanomethyl)-1H-indol-6-yl]-4-oxo-1H-quinoline-3-carboxamide] | 25 to 100%
13 | O=C(Nc1cc(NS(=O)(=O)CCN2CCOCC2)cc(C(F)(F)F)c1)c1c[nH]c2ccccc2c1=O [Compound 272, N-[3-(2-morpholinoethylsulfonylamino)-5-(trifluoromethyl)phenyl]-4-oxo-1H-quinoline-3-carboxamide] | 25 to 100%
14 | COc1cccc(OC)c1-c1ccccc1NC(=O)c1c[nH]c2ccccc2c1=O [Compound 49, N-[2-(2,6-dimethoxyphenyl)phenyl]-4-oxo-1H-quinoline-3-carboxamide] | 25 to 100%
15 | CC(C)(C)c1ccc(NC(=O)c2c[nH]c3ccccc3c2=O)cc1O [Compound 428, N-(3-hydroxy-4-tert-butyl-phenyl)-4-oxo-1H-quinoline-3-carboxamide] | 25 to 100%
16 | COc1cc2c(=O)c(C(=O)Nc3cc(O)c(C(C)(C)C)cc3C(C)(C)C)c[nH]c2cc1F [Compound 709, 7-fluoro-N-(5-hydroxy-2,4-ditert-butyl-phenyl)-6-methoxy-4-oxo-1H-quinoline-3-carboxamide] | > 100%
17 | CC(=O)Nc1cc(NC(=O)c2c[nH]c3ccccc3c2=O)cc(C(F)(F)F)c1 [Compound 379, N-[3-acetylamino-5-(trifluoromethyl)phenyl]-4-oxo-1H-quinoline-3-carboxamide] | 25 to 100%
